Assay results published in patent US7767789B2, “Truncated proteins as cancer markers” (University Hopitals of Cleveland, priority 2005, dated 2010).

What was measured:
MDCK-P2X7 cells = test: Apoptosis, Cell Death Detection ELISA-PLUS, MDCK cells; type: cell-based, canine; conditions: doxycycline treated MDCK-P2X7 cells; BzATP 50 micromolar
Method: Baseline and BzATP-induced apoptosis in MDCK cells and in HEK-293 cells expressing P2X7 and P2X7-j proteins were studied. FIG. 17. […] Cells were treated with BzATP (50 micromolar) to activate the P2X7 receptors. Apoptosis was quantified using Cell Death Detection ELISA-PLUS photometric enzyme-immunoassay that determines cytoplasmic histone-associated-DNA-fragments (mono and oligonucleosomes) after spontaneous or induced cell death (Roche, Cat. No. 1774425, 96 tests). […] Expression of the P2X7-j proteins either had no effect (HEK-293 cells) or may have decreased apoptosis (MDCK cells).

HeLa cells = test: Cell selection: growth with BzATP and immunoblot of P2X7/P2X7-j protein, HeLa; type: cell-based, human; conditions: 50 micromolar BzATP, seven days
Method: (§1) Growth of various cell lines expressing P2X7 and/or P2X7-j in the presence or absence of BzATP was performed to determine how P2X7 receptors may affect cell selection over time. FIG. 23. HEK-293 cells expressing P2X7, HEK-293 cells expressing P2X7-j, or HeLa cells, which express both P2X7 and P2X7-j were separately grown in culture, in the presence or absence of 50 micromolar BzATP for seven (7) days. At various time points, samples of the cells were taken and examined for expression of P2X7 and/or P2X7-j protein by immunoblotting using a P2X7-specific antibody. This antibody was obtained from Alomone Labs (Jerusalem, Israel) and was reactive with the extracellular domain of P2X7 protein. Amino acids 136-152 of the mouse P2X7 receptor ([…]; (SEQ ID NO:7)) were used as the antigen to prepare the antibody. A labeled secondary antibody was used to visualize reactive protein bands. By layering equal amounts of total protein (15 micrograms) it was possible to compare the relative expression of the P2X7 and/or P2X7-j proteins by the cells.

[1] = tested on: HEK-293 cells expressing P2X7 or P2X7-j; test: Cell selection: growth with BzATP and immunoblot of P2X7/P2X7-j protein, HEK-293; type: cell-based, human
Method: as §1

[2] = biological target: T1, P2X7 channel (MDCK cells expressing P2X7 or P2X7-j) (Homo sapiens, UniProt Q99572, R270H/Y155H); test: BzATP-stimulated channel activation (Fluo-4 calcium), MDCK cells; type: cell-based; conditions: MDCK-P2X7 cells; 100 micromolar BzATP
T1 construct: expressed in transfected cells; host or cells: MDCK (canine kidney), doxycycline-inducible promoter
Method: (§2) 2′-3′-O-(4-benzoyl-benzoyl)adenosine 5′-triphosphate (BzATP) stimulated channel activation of P2X7 and P2X7-j was determined. FIG. 11. As discussed earlier, activation of P2X7 receptors provides influx of selected cations through the ATP-activated channel provided by the P2X7 protein. MDCK or HEK-293 cells expressing either P2X7 or P2X7-j were loaded with the calcium-sensitive dye Fluo-4 and treated with 100 micromolar of BzATP. Calcium entry into the cells via the P2X7 channel after BzATP activation was measured in terms of changes in Fluo-4 fluorescence.
(§3) A quantification of the changes in cytosolic calcium after BzATP exposure provided data that was similar to that presented in FIG. 11. FIG. 12.

[3] = biological target: T2, P2X7 channel (MDCK cells expressing P2X7 or P2X7-j) (Homo sapiens, UniProt Q99572, Y155H); test: as above; type: cell-based; conditions: MDCK-P2X7-j cells compared to MDCK-P2X7 cells
T2 construct: expressed in transfected cells; host or cells: MDCK (canine kidney), doxycycline-inducible promoter
Method: as §2, §3

[4] = biological target: T3, full-length human P2X7 receptor (HEK-293-hP2X7-R cells) (Homo sapiens, UniProt Q99572); test: Cytosolic calcium in HEK-293-hP2X7-R and wild-type HEK293 cells on filters; type: cell-based
T3 construct: For transfections, the full length human P2X7 receptor; expressed in transfected cells; host or cells: HEK-293, pcDNA-6 vector
T3 sequence (Q99572 1-595): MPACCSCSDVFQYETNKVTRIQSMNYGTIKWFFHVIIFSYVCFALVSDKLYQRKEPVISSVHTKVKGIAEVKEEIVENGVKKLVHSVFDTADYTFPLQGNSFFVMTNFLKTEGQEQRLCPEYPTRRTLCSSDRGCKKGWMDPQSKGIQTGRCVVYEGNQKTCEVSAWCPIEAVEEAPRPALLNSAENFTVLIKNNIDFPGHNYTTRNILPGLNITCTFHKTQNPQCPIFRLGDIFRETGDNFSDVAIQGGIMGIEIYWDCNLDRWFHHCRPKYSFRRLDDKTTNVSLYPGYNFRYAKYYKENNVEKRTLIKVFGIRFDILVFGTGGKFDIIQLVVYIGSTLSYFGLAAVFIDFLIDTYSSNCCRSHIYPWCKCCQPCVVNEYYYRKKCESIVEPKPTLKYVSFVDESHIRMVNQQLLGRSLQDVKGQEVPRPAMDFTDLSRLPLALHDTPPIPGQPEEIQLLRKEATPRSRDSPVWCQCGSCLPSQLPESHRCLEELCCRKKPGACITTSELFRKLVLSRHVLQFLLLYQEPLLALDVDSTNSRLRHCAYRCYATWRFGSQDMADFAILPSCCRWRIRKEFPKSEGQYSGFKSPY

[5] = biological target: T4, P2X7-mediated pore (MDCK cells expressing P2X7 or P2X7-j) (Homo sapiens, UniProt Q99572, R270H/Y155H); test: BzATP-stimulated pore activation (ethidium bromide entry), MDCK cells; type: cell-based; conditions: doxycycline-treated MDCK-P2X7 cells; BzATP 100 micromolar
T4 construct: expressed in transfected cells; host or cells: MDCK (canine kidney), doxycycline-inducible promoter
Method: (§4) BzATP-stimulated pore activation of P2X7 and P2X7-j receptor proteins was also determined. FIG. 13. MDCK cells or HEK-293 cells expressing either P2X7 or P2X7-j were treated with BzATP in the presence of ethidium bromide. Fluorescence of ethidium bromide was measured after BzATP activation (100 micromolar) as a measure of ethidium bromide entry into the cells via the P2X7-mediated pore. Results in seven Panels (A-G) each composed of 30 exposures of cells placed on a glass slide. The direction of the pictures in each Panel is left to right, and then up-down. […] FIG. 13, Panel B and Panel F, respectively.
(§5) A quantification of the changes in ethidium bromide signaling from experiments similar to those in FIG. 13 was then calculated. FIG. 14.

[6] = biological target: T5, P2X7-mediated pore (MDCK cells expressing P2X7 or P2X7-j) (Homo sapiens, UniProt Q99572, Y155H); test: as above; type: cell-based; conditions: doxycycline-treated MDCK-P2X7-j cells compared to MDCK-P2X7 cells
T5 construct: expressed in transfected cells; host or cells: MDCK (canine kidney), doxycycline-inducible promoter
Method: as §4, §5

T1 sequence (Q99572 whole entry Y155H/R270H): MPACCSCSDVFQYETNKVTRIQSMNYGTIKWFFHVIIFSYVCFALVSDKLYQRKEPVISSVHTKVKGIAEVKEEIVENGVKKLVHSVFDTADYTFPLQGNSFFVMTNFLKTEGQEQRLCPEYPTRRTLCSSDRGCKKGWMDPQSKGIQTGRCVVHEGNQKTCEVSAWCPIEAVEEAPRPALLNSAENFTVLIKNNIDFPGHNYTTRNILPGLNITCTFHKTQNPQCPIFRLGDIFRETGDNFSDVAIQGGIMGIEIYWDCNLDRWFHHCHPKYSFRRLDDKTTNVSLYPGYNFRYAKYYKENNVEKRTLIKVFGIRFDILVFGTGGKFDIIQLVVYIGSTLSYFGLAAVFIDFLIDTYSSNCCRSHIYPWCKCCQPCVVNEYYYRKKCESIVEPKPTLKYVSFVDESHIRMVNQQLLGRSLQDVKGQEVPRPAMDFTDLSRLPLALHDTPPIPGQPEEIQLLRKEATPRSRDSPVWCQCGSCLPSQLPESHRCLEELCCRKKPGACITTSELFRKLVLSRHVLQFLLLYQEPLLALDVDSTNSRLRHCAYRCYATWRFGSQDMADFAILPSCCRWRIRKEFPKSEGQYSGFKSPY
T4 sequence (Q99572 whole entry Y155H/R270H): as above
T5 sequence (Q99572 1-258 isoform Q99572-9 Y155H): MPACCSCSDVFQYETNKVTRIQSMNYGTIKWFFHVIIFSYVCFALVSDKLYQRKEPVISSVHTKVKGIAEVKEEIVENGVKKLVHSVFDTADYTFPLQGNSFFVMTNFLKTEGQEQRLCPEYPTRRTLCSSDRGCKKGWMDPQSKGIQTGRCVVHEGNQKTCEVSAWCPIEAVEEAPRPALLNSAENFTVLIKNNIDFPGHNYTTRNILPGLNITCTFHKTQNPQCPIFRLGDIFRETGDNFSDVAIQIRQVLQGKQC
T2 sequence (Q99572 1-258 isoform Q99572-9 Y155H): as above

2′-3′-O-(4-benzoylbenzoyl)adenosine 5′-triphosphate [BzATP]
apoptosis (MDCK-P2X7 cells): increased apoptosis
expression of P2X7 protein (HeLa cells): significantly decreased
expression of the P2X7-j protein (HeLa cells): remained stable
expression of the P2X7-j protein ([1]; HEK-293 cells expressing P2X7-j, continuous 50 micromolar BzATP): did not decrease the expression of the P2X7-j protein
expression of the P2X7 protein ([1]; HEK-293 cells expressing P2X7, 50 micromolar BzATP, each day up to 7 days): less than in cells not treated with BzATP
Fluo-4 signal (cytosolic calcium) [2]: increased acutely the Fluo-4 signal
calcium response to BzATP [3]: significantly smaller
sustained cytosolic calcium increase [4]: induced sustained Ci increase
ethidium bromide signaling (pore) [5]: increased ethidium bromide signaling
ethidium bromide signaling response to BzATP [6]: significantly smaller
